Measurements published in article PMC4161441, “Unravelling the Multiple Functions of the Architecturally Intricate Streptococcus pneumoniae β-galactosidase, BgaA” (PLoS Pathogens, 2014).

Experiments:
CBM71-2 [1] = target: T1, CBM71-2 (Streptococcus pneumoniae, UniProt Q8DQP4); experiment: UV difference spectroscopy; type: binding; settings: 25 °C; too weak to quantify
T1 construct: gene bgaA; pET28-based expression in E. coli; exact borders not in text

CBM71-1 [2] = target: T2, CBM71-1 (Streptococcus pneumoniae, UniProt Q8DQP4); experiment: UV difference spectroscopy; type: binding; settings: 25 °C; too weak to quantify
T2 construct: gene bgaA; pET28-based expression in E. coli; exact borders not in text
T2 sequence (Q8DQP4 entry or part of it): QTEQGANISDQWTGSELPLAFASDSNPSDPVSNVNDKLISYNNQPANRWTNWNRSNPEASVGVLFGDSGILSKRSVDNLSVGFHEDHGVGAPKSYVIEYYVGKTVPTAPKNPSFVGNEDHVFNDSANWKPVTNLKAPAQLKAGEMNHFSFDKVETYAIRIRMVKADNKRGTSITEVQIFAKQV

CBM71-1 [3] = target: T2, CBM71-1; experiment: isothermal titration calorimetry; type: binding; settings: PBS, 25 °C
CBM71-2 [4] = target: T1, CBM71-2; experiment: isothermal titration calorimetry; type: binding; settings: PBS, 25 °C
[5] = target: T3, BgaA catalytic region (GH2; SpBgaA) (Streptococcus pneumoniae, UniProt A0A0H2UP19); experiment: steady-state kinetics, UV-visible spectrophotometry; apparent Km/Vmax against inhibitor concentration; type: biochemical
T3 construct: N-terminal catalytic region, domains I-V (GH2 region printed as residues 138-993; SpBgaA146-990 in cell assay); pET28-based expression in E. coli; source strain and exact borders not in main text

[6] = target: T3, BgaA catalytic region (GH2; SpBgaA); experiment: isothermal titration calorimetry; type: binding

T1 sequence (Q8DQP4 entry or part of it): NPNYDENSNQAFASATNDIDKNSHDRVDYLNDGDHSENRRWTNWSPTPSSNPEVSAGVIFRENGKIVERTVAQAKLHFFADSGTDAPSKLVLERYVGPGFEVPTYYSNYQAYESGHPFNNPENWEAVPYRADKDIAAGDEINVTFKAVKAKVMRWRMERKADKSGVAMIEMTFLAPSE

Row | Compound | Kd (CBM71-1 [3]) | Kd (CBM71-2 [4]) | Ki [5] | also measured
1 | OC[C@H]1OC(O)[C@H](O)[C@@H](O)[C@H]1O (stereo partly drawn) [D-galactose] |  |  |  | UV difference spectroscopy (CBM71-2 [1]): For both CBMs, the binding to galactose was too weak to quantify; UV difference spectroscopy (CBM71-1 [2]): only D-galactose gave a signature UV difference spectrum consistent with sugar binding
2 | CC(=O)N[C@H]1C(O)O[C@H](CO)[C@@H](O[C@@H]2O[C@H](CO)[C@H](O)[C@H](O)[C@H]2O)[C@@H]1O (stereo partly drawn) [LacNAc] | 251 µM | 247 µM |  | 
3 | OC[C@H]1CNC[C@@H](O)[C@H]1O [galactoisofagomine] |  |  | 0.025 µM | Kd [6]: 0.026 µM
4 | OC[C@H]1NC(O)[C@H](O)[C@@H](O)[C@H]1O (stereo partly drawn) [galactonojirimycin] |  |  | 33.9 µM | 
5 | OC[C@H]1O[C@@H](O[C@H]2[C@H](O)[C@@H](O)C(O)O[C@@H]2CO)[C@H](O)[C@@H](O)[C@H]1O (stereo partly drawn) [lactose] | 368 µM | 378 µM |  | 
